Values quoted from earlier work as cited in US20070105927A1, “Amorphous rizatriptan benzoate” (Glenmark Pharmaceuticals Limited, priority 2005, published 2007).

How the values were obtained:
[1] = target: human cloned 5-HT1B receptors (Homo sapiens, UniProt P28222); conditions: human cloned receptor
[2] = target: human cloned 5-HT1D receptors (Homo sapiens, UniProt P28221); conditions: human cloned receptor
5-HT1A receptor subtype = target: T1, 5-HT1A receptor subtype (Homo sapiens, UniProt P08908)
T1 sequence (P08908 1-422): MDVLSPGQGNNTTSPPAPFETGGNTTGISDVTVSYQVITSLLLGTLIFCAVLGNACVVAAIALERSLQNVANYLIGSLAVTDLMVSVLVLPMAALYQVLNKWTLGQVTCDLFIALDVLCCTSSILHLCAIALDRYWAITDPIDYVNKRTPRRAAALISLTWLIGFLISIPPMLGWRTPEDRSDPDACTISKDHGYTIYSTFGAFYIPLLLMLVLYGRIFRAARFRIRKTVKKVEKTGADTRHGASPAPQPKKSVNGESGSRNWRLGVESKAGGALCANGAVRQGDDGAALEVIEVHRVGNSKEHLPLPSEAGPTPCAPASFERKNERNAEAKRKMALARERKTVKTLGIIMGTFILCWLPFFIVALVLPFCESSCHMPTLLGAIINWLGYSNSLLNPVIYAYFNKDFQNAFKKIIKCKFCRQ

5-HTIE receptor subtype = 5-HTIE receptor subtype (Homo sapiens, UniProt P28566)
5-HTIF receptor subtype = target: T2, 5-HTIF receptor subtype (Homo sapiens, UniProt P30939)
T2 sequence (P30939 1-366): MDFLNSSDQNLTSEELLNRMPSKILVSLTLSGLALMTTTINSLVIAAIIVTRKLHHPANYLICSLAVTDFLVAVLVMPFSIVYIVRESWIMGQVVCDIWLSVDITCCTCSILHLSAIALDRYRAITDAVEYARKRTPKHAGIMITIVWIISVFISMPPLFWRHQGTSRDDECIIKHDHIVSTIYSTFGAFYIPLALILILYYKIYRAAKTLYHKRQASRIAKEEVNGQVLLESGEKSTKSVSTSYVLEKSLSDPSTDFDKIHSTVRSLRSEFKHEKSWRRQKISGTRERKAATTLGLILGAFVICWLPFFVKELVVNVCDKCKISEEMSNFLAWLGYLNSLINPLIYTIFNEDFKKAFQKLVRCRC

5-HT7 receptor = 5-HT7 receptor (Homo sapiens, UniProt P34969)
[3] = test system: alpha-adrenergic receptors
[4] = test system: beta-adrenergic receptors
[5] = in vivo

Chain of 5-HTIE receptor subtype (P28566 whole entry): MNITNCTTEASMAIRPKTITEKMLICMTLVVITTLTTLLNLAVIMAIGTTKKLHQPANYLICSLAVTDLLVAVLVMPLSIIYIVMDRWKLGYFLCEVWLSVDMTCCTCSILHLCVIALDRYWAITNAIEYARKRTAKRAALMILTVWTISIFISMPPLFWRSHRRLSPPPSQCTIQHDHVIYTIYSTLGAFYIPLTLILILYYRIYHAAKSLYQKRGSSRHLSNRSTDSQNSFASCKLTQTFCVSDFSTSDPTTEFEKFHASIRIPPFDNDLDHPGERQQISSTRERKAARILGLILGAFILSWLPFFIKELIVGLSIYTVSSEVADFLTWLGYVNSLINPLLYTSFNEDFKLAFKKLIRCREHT
Chain of 5-HT7 receptor (P34969 whole entry): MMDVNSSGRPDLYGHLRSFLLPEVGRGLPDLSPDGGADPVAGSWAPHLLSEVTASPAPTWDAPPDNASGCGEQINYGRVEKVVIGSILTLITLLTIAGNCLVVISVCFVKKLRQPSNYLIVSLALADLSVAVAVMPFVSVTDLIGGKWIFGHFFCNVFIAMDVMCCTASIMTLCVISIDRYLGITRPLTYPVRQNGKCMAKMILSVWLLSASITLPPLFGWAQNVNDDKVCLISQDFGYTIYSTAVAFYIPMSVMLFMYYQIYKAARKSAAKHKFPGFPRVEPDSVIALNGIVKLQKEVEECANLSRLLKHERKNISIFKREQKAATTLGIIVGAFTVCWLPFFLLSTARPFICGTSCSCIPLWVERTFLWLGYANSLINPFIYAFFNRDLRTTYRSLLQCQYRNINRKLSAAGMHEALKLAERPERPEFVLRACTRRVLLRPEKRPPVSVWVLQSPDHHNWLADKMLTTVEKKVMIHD
Chain of human cloned 5-HT1D receptors (P28221 whole entry): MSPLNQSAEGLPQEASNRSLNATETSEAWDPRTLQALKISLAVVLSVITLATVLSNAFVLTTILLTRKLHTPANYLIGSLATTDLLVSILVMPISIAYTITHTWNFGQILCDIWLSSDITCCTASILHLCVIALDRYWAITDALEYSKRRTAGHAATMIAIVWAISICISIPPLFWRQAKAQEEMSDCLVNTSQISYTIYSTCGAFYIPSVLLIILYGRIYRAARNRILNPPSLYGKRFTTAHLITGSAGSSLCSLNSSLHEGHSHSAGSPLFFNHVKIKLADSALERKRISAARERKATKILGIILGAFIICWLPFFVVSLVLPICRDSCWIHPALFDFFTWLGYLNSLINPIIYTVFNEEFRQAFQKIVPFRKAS
Chain of human cloned 5-HT1B receptors (P28222 whole entry): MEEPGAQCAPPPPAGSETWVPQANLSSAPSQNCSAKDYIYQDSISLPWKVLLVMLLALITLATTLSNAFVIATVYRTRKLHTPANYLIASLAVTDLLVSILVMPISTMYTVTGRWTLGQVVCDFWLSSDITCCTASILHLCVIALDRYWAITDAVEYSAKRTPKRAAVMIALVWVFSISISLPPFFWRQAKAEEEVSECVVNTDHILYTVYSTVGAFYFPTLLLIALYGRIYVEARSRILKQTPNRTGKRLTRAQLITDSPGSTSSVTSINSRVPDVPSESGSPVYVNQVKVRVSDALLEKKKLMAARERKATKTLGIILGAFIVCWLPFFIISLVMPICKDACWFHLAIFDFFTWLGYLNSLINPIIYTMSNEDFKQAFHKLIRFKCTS

Structure (SMILES) | affinity for 5-HT1B receptors [1] | affinity for 5-HT1D receptors [2] | affinity for 5-HT1A receptor subtype (5-HT1A receptor subtype) | affinity for 5-HTIE receptor subtype (5-HTIE receptor subtype) | affinity for 5-HTIF receptor subtype (5-HTIF receptor subtype) | affinity for 5-HT7 receptor (5-HT7 receptor) | activity at 5-HT2 receptors (5-HT2 receptors) | activity at 5-HT3 receptors (5-HT3 receptors) | activity at alpha-adrenergic receptors [3] | activity at beta-adrenergic receptors [4] | activity at dopaminergic receptors (dopaminergic receptors) | activity at histaminergic receptors (histaminergic receptors) | activity at muscarinic receptors (muscarinic receptors) | activity at benzodiazepine receptors (benzodiazepine receptors) | bioavailability [5]
CN(C)CCc1c[nH]c2ccc(Cn3cncn3)cc12 [Rizatriptan] | high affinity | high affinity | weak affinity | weak affinity | weak affinity | weak affinity | no significant activity | no significant activity | no significant activity | no significant activity | no significant activity | no significant activity | no significant activity | no significant activity | 
CO/N=C(\C(=O)N[C@@H]1C(=O)N2C(C(=O)OC(C)OC(C)=O)=C(COC(N)=O)CS[C@H]12)c1ccco1 (stereo partly drawn) [cefuroxime axietil] |  |  |  |  |  |  |  |  |  |  |  |  |  |  | much higher bioavailability than the crystalline forms
